Drawing on US12583870B2, “Azaheteroaryl compound and application thereof” (SHANGHAI BLUERAY BIOPHARMA CO., LTD., priority 2019, dated 2026), this text covers IC50 for 17 molecules.

The test system of test [1] is trimethylation level of histone H3K27 in G401 cells. As to the kind of experiment: ELISA (H3K27 trimethylation) analysis in G401 cells. The test is classed as cell-based. The settings on record: Homo sapiens, G-401, 72 hours, H3K27me3 standardized to H3. In a few lines:
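Cells exposed 72 h to 10-point 3-fold dilutions, top 10 μM, 0.5% final DMSO. Acid-extracted histones assayed by ELISA (ECL) for H3K27me3, normalized to total H3 and to DMSO control; IC50 from dose-response fit.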
(In general: ELISA stands for enzyme-linked immunosorbent assay.)

The target of test [2] is T1, EED protein (His6-tagged full-length) binding to H3K27me3 polypeptide (Homo sapiens, UniProt O75530).
T1 construct: His6-tagged full-length EED protein (441 amino acids)
As to the kind of experiment: AlphaScreen evaluation of blocking the binding of EED to H3K27Me3. The settings on record: EED 60 nM, biotinylated H3K27me3 75 nM, 30 minutes incubation. An outline of the steps: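 His6-tagged full-length EED (60 nM working stock) and biotin-H3K27me3 peptide aa 19–33 (75 nM working stock) incubated 30 min RT with 9-point 3-fold compound series in 25 mM HEPES pH 8.0, 50 mM NaCl, 0.015% Tween 20, 0.5% BSA. Ni-chelate acceptor and streptavidin donor beads (5 μg/mL each), 1 h dark; IC50 from dose-response fit. Biotin-(His)6 counterscreen checked signal interference.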
On the technique in general: Alpha assays give light when donor and acceptor beads are brought close together.

The subject of a further test is KARPAS-422 cells. Put plainly: Cell proliferation analysis, KARPAS-422, 13 days, CellTiter-Glo. In kind it is cell-based. The conditions noted are these: Homo sapiens, 312 h. In a few lines:
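KARPAS-422 cells were treated with PRC2 inhibitors over 9 three-fold dilutions from 10 μM top (0.5% DMSO, duplicates) in RPMI-1640 with 15% FBS at 37 °C. Every 3–4 days cells were counted and reseeded at 1×10^4/well with fresh compound. Viability was read by CellTiter-Glo luminescence on day 13.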
(ATP-based viability assays read luminescence as a measure of living cells.)

T1 sequence (O75530 whole entry): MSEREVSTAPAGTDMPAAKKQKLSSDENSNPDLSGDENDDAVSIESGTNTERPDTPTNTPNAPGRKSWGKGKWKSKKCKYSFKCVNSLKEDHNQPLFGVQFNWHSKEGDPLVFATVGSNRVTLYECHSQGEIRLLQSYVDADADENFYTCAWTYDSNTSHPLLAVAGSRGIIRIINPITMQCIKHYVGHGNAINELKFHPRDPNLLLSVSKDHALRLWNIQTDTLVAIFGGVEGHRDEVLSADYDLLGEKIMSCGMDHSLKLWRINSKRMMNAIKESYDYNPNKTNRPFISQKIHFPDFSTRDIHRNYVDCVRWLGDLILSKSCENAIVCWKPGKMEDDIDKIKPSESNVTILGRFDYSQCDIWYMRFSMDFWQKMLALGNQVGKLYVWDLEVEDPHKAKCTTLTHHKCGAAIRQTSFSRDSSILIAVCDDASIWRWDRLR

For orientation: IC50 means the midpoint of a concentration-inhibition curve. A higher IC50 goes with a need for much substance. In the case of `CC1=CS(=O)(=O)c2ccc(-c3cnc(NCc4c(F)ccc5c4[C@H]4C[C@H]4O5)n4cnnc34)cc21` [5-(5-((((1aR,6bR)-5-fluoro-1a,6b-dihydro-1H-cyclopropa[b]benzofuran-6-yl)methyl)amino)-[1,2,4]triazolo[4,3-c]pyrimidin-8-yl)-3-methylbenzo[b]thiophene 1,1-dioxide], the IC50 in test [1] worked out at 0.0136 µM; in test [2] it was 0.0049 µM; in the test with KARPAS-422 cells, 0.0243 µM.

Turning to `O=S1(=O)C=Cc2cc(-c3cnc(NCc4c(F)ccc5c4[C@H]4C[C@H]4O5)n4cnnc34)ccc21` [5-(5-((((1aR,6bR)-5-fluoro-1a,6b-dihydro-1H-cyclopropa[b]benzofuran-6-yl)methyl)amino)-[1,2,4]triazolo[4,3-c]pyrimidin-8-yl)benzo[b]thiophene 1,1-dioxide], the IC50 in test [1] amounted to 0.0008 µM; in test [2], 0.0038 µM; in the test on KARPAS-422 cells, 0.0007 µM.

In the case of `O=S1(=O)C=c2ccc(-c3cnc(NCc4c(F)ccc5c4[C@H]4C[C@H]4O5)n4cnnc34)cc2=C1` [5-(5-((((1aR,6bR)-5-fluoro-1a,6b-dihydro-1H-cyclopropa[b]benzofuran-6-yl)methyl)amino)-[1,2,4]triazolo[4,3-c]pyrimidin-8-yl)benzo[c]thiophene 2,2-dioxide], the concentration for half-maximal inhibition (IC50) in test [1] came out at 0.0006 µM; in test [2], 0.0063 µM; with KARPAS-422 cells it was 0.0008 µM.

For `O=S1(=O)C=Cc2cc(-c3cnc(NCc4c(F)ccc5c4[C@@H]4C[C@@H]4O5)n4cnnc34)ccc21` [5-(5-((((1aS,6bS)-5-fluoro-1a,6b-dihydro-1H-cyclopropa[b]benzofuran-6-yl)methyl)amino)-[1,2,4]triazolo[4,3-c]pyrimidin-8-yl)benzo[b]thiophene 1,1-dioxide], the figures for the IC50 (in test [1]; in test [2]; in the test on KARPAS-422 cells) were 0.016 µM, 0.015 µM and 0.0038 µM, respectively.

With `CC1=Cc2ccc(-c3cnc(NCc4c(F)ccc5c4CCO5)n4cnnc34)cc2S1(=O)=O` [6-(5-(((5-fluoro-2,3-dihydrobenzofuran-4-yl)methyl)amino)-[1,2,4]triazolo[4,3-c]pyrimidin-8-yl)-2-methylbenzo[b]thiophene 1,1-dioxide], the IC50 in test [1] came to 0.0079 µM; in test [2], 0.0027 µM; with KARPAS-422 cells, 0.0088 µM.

With `CC1=C(C)S(=O)(=O)c2c(F)cc(-c3cnc(NCc4c(F)ccc5c4CCO5)n4cnnc34)cc21` [7-fluoro-5-(5-(((5-fluoro-2,3-dihydrobenzofuran-4-yl)methyl)amino)-[1,2,4]triazolo[4,3-c]pyrimidin-8-yl)-2,3-dimethylbenzo[b]thiophene 1,1-dioxide], the IC50 is 0.014 µM in test [1], 0.002 µM in test [2] and 0.0087 µM in the test with KARPAS-422 cells.

`O=S1(=O)C=Cc2cc(-c3cnc(NCc4c(F)ccc5c4CCO5)n4cnnc34)cc(F)c21` [7-fluoro-5-(5-(((5-fluoro-2,3-dihydrobenzofuran-4-yl)methyl)amino)-[1,2,4]triazolo[4,3-c]pyrimidin-8-yl)benzo[b]thiophene 1,1-dioxide]: the IC50 was found to be 0.0028 µM in test [1], 0.0045 µM in test [2] and 0.0005 µM with KARPAS-422 cells.

With `Cc1ccc(-c2cnc(NCc3c(F)ccc4c3CCO4)n3cnnc23)c2ncc(C)n12` [8-(3,5-dimethylimidazo[1,2-a]pyridin-8-yl)-N-((5-fluoro-2,3-dihydrobenzofuran-4-yl)methyl)-[1,2,4]triazolo[4,3-c]pyrimidin-5-amine], the IC50 amounted to 0.0027 µM in test [1], 0.0051 µM in test [2] and 0.0019 µM with KARPAS-422 cells.

Take `Fc1cc(-c2cnc(NCc3c(F)ccc4c3CCO4)n3cnnc23)c2ncc(F)n2c1` [8-(3,6-difluoroimidazo[1,2-a]pyridin-8-yl)-N-((5-fluoro-2,3-dihydrobenzofuran-4-yl)methyl)-[1,2,4]triazolo[4,3-c]pyrimidin-5-amine]: the results for the IC50 (in test [1]; in test [2]; in the test with KARPAS-422 cells) were 0.0077 µM, 0.0052 µM and 0.0075 µM, respectively.

In the case of `CCc1cnc2c(-c3cnc(NCc4c(F)ccc5c4CCO5)n4cnnc34)ccc(C)n12` [8-(3-ethyl-5-methylimidazo[1,2-a]pyridin-8-yl)-N-((5-fluoro-2,3-dihydrobenzofuran-4-yl)methyl)-[1,2,4]triazolo[4,3-c]pyrimidin-5-amine], the IC50 in test [1] turned out to be 0.0025 µM; in test [2], 0.003 µM; in the test on KARPAS-422 cells, 0.0022 µM.

As for `CCc1cnc2c(-c3cnc(NCc4c(F)ccc5c4CCO5)n4cnnc34)cccn12` [8-(3-ethylimidazo[1,2-a]pyridin-8-yl)-N-((5-fluoro-2,3-dihydrobenzofuran-4-yl)methyl)-[1,2,4]triazolo[4,3-c]pyrimidin-5-amine], the IC50 in test [1] came out at 0.0009 µM; in test [2], 0.0025 µM; in the test on KARPAS-422 cells, 0.0009 µM.

For `Fc1ccc2c(c1CNc1ncc(-c3cccn4c(Cc5ccccc5)cnc34)c3nncn13)CCO2` [8-(3-phenylmethylimidazo[1,2-a]pyridin-8-yl)-N-((5-fluoro-2,3-dihydrobenzofuran-4-yl)methyl)-[1,2,4]triazolo[4,3-c]pyrimidin-5-amine], the IC50 is 0.0045 µM in test [1], 0.0012 µM in test [2] and 0.0036 µM in the test on KARPAS-422 cells.

On to `N#Cc1cnc2c(-c3cnc(NCc4c(F)ccc5c4CCO5)n4cnnc34)cccn12` [8-(5-(((5-fluoro-2,3-dihydrobenzofuran-4-yl)methyl)amino)-[1,2,4]triazolo[4,3-c]pyrimidin-8-yl)imidazo[1,2-a]pyridine-3-carbonitrile], for which the IC50 in test [1] was 0.0032 µM; in test [2], 0.0047 µM; in the test on KARPAS-422 cells, 0.0035 µM.

As for `NC(=O)c1cnc2c(-c3cnc(NCc4c(F)ccc5c4CCO5)n4cnnc34)cccn12` [8-(5-(((5-fluoro-2,3-dihydrobenzofuran-4-yl)methyl)amino)-[1,2,4]triazolo[4,3-c]pyrimidin-8-yl)imidazo[1,2-a]pyridine-3-carboxamide], the IC50 in test [1] came to 0.0041 µM; in test [2], 0.0035 µM; with KARPAS-422 cells, 0.0037 µM.

As to `Fc1ccc2c(c1CNc1ncc(-c3cc(Cl)cn4ccnc34)c3nncn13)CCO2` [8-(6-chloroimidazo[1,2-a]pyridin-8-yl)-N-((5-fluoro-2,3-dihydrobenzofuran-4-yl)methyl)-[1,2,4]triazolo[4,3-c]pyrimidin-5-amine], the values for the IC50 (in test [1]; in test [2]; with KARPAS-422 cells) were 0.0085 µM, 0.0044 µM and 0.042 µM, respectively.

Regarding `Fc1ccc2c(c1CNc1ncc(-c3ccn4ncnc4c3)c3nncn13)[C@H]1C[C@H]1O2` [8-([1,2,4]triazolo[1,5-a]pyridin-7-yl)-N-(((1aR,6bR)-5-fluoro-1a,6b-dihydro-1H-cyclopropa[b]benzofuran-6-yl)methyl)-[1,2,4]triazolo[4,3-c]pyrimidin-5-amine], the IC50 was found to be 0.0073 µM in test [1], 0.0045 µM in test [2] and 0.0077 µM in the test on KARPAS-422 cells.

On to `Fc1ccc2c(c1CNc1ncc(-c3cccn4ncnc34)c3nncn13)[C@H]1C[C@H]1O2` [8-([1,2,4]triazolo[1,5-a]pyridin-8-yl)-N-(((1aR,6bR)-5-fluoro-1a,6b-dihydro-1H-cyclopropa[b]benzofuran-6-yl)methyl)-[1,2,4]triazolo[4,3-c]pyrimidin-5-amine], for which the IC50 came out at 0.0007 µM in test [1], 0.004 µM in test [2] and 0.0019 µM with KARPAS-422 cells.
